Measurements as given in the PolyMetriX glass transition set.
± gives the standard deviation of the reports.

Assays:
[1] = not given; remark: listed apart in the source
[2] = not given; remark: listed apart in the source

Question: Which glass transition temperature does the source give for `*C=Cc1cc(OC)c(*)cc1OCCC(C)CCCC(C)C` (repeat unit) here?
Answer: The glass transition temperature was 50.00 °C.

Question: Which glass transition temperature [1] does the source give for `*c1nc(C(F)(F)C(F)(F)OC(F)(F)F)nc(C(F)(F)C(F)(F)C(F)(F)C(*)(F)F)n1` (repeat unit) [Perfluoropolymer 2 ] here?
Answer: The glass transition temperature was -18.6 ± 0.7 °C.

Question: Which glass transition temperature [1] does the source give for `*CC=C(C*)CCC` (repeat unit) [Poly(2-n-propyl-1 ,4-butadiene) ] here?
Answer: The glass transition temperature was -77.6 ± 0.7 °C.

Question: For `*CC(*)C(=O)NCCCCCCCC` (repeat unit) [Poly(N-octyl acrylamide)], which glass transition temperature [2] is on record?
Answer: Its glass transition temperature is -53 °C.

Question: Which glass transition temperature [2] does the source give for `*CC(*)C(=O)OCC#N` (repeat unit) [Poly(cyanomethyl acrylate)] here?
Answer: The glass transition temperature was 23 °C.

Question: With `*CC(*)Br` (repeat unit) [Poly(vinyl bromide)] as the molecule, how does the glass transition temperature [2] read?
Answer: The glass transition temperature was 100 °C.

Question: With `*CC(*)C(=O)CC` (repeat unit) [Poly(vinyl ethyl ketone)] as the molecule, how does the glass transition temperature [2] read?
Answer: The glass transition temperature was -60 °C.
